Source: US6703415B2, “Inhibitors of matrix metallaproteinases” (Wayne State University, priority 2000, dated 2004)
Like-named read-outs stand apart in the source and are kept apart here.

Columns and labels:
MMP-9 [1] = target: T1, MMP-9 (Homo sapiens, UniProt P14780); assay: biochemical
MMP-3 = target: T2, MMP-3 (Homo sapiens, UniProt P08254); assay: Fluorescence enzymatic activity assay / kinetic analyses, stromelysin 1 (MMP-3); type: biochemical; conditions: NI = not inhibiting even at 130-330 μM
T2 construct: gift of Dr. Paul Cannon, Center for Bone and Joint Research, Palo Alto, Calif

MMP-1 = target: T3, MMP-1 (Homo sapiens, UniProt P03956); assay: Kinetic analyses, MMP-1; type: biochemical; conditions: NI = not inhibiting even at 130-330 μM
T3 sequence (P03956 100-469): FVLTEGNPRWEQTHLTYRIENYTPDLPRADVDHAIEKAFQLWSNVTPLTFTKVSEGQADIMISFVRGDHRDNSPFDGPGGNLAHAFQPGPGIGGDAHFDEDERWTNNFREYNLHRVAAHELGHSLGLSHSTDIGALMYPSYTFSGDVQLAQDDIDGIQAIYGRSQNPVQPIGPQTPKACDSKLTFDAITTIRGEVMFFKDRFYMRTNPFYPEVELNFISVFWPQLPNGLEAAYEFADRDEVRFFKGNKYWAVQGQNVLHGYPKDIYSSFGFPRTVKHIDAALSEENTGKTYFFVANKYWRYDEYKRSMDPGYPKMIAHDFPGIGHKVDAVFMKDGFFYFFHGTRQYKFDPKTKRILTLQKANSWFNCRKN
Experimental: The progress curves were nonlinear least squares fitted to Equation 1 (Muller-Steffner, H. M., Malver, O., Hosie, L., Oppenheimer, N. J., and Schuber, F. J. Biol. Chem. 1992, 267, 9606-9611.):
Analysis for linear competitive inhibition was performed in the following manner. […] The fluorescence versus time traces were fitted by linear regression analysis using FeliX™. The initial rates were fitted to Equation 5 (Segel, I. H. in: Enzyme Kinetics, Wiley Inc., New York, 1975, pp. 104.):
The following buffers were used in experiments with enzymes: Buffer C (50 mM HEPES at pH 7.5, 150 mM NaCl, 5 mM CaCl2, 0.02% Brij-35); buffer R (50 mM HEPES at pH 7.5, 150 mM NaCl, 5 mM CaCl2, 0.01% Brij-35, and 1% v/v Me2SO) and buffer D (50 mM Tris at pH 7.5, 150 mM NaCl, 5 mM CaCl2, and 0.02% Brij-35).

MMP-2 [2] = target: T4, MMP-2 (Homo sapiens, UniProt P08253); assay: biochemical
T4 sequence (P08253 110-660): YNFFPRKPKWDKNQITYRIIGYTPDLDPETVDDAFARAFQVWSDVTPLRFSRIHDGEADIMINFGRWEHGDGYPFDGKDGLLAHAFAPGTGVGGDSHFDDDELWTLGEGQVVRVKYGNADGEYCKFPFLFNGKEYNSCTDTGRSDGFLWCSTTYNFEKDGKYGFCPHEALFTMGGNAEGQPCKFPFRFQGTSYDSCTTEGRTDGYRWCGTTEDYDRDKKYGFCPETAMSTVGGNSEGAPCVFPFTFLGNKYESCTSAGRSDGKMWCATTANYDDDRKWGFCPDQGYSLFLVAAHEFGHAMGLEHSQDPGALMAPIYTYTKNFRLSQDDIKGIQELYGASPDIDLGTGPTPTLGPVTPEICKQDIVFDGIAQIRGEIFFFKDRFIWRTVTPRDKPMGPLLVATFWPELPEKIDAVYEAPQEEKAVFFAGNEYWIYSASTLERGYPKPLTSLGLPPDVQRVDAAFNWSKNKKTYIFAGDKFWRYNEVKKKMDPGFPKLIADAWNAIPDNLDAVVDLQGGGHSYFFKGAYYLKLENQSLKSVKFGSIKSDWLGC

MMP-7 = target: T5, MMP-7 (Homo sapiens, UniProt P09237); assay: Fluorescence enzymatic activity assay / kinetic analyses, MMP-7; type: biochemical; conditions: NI = not inhibiting even at 130-330 μM
T5 sequence (P09237 95-267): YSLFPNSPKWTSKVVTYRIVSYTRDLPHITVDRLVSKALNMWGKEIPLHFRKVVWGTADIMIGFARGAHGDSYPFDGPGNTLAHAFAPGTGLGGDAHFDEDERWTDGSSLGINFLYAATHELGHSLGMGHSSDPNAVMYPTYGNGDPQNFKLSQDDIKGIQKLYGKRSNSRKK
Experimental: The enzymatic activity of MMP-2, MMP-9, and MMP-7 was monitored with the fluorescence quenched substrate MOCAcPLGLA2pr(Dnp)-AR-NH2. Fluorescence was measured with a Photon Technology International (PTI) spectrofluorometer interfaced to a Pentium computer, equipped with the RatioMaster™ and FeliX™ hardware and software, respectively. The cuvette compartment was thermostated at 25.0° C. […] Fluorescence measurements were taken every 4 s. Less than 10% hydrolysis of the fluorogenic substrate was monitored, as described by Knight.

MMP-9 [3] = target: T1, MMP-9; conditions: high-affinity site for TIMPs, reported earlier (Olson et al. 1997); cited from earlier work
MMP-2 [4] = target: T4, MMP-2; conditions: high-affinity site for TIMPs, reported earlier (Olson et al. 1997); cited from earlier work

T1 sequence (P14780 107-707 limits assumed): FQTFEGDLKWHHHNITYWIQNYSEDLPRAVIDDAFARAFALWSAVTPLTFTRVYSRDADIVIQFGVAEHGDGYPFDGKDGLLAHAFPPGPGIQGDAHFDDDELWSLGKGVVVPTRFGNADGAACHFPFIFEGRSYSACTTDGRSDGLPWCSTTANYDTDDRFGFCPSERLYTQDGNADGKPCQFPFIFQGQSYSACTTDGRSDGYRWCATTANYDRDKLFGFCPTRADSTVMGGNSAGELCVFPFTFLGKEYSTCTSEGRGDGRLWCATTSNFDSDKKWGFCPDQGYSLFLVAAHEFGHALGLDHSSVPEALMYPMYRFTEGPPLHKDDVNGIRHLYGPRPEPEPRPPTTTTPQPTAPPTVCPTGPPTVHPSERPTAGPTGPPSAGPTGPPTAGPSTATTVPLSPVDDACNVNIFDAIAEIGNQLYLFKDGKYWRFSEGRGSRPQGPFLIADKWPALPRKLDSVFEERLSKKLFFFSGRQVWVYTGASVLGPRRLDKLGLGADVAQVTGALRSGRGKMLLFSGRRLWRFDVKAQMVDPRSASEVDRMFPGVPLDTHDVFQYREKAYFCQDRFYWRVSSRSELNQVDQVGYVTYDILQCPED
T2 sequence (P08254 100-477): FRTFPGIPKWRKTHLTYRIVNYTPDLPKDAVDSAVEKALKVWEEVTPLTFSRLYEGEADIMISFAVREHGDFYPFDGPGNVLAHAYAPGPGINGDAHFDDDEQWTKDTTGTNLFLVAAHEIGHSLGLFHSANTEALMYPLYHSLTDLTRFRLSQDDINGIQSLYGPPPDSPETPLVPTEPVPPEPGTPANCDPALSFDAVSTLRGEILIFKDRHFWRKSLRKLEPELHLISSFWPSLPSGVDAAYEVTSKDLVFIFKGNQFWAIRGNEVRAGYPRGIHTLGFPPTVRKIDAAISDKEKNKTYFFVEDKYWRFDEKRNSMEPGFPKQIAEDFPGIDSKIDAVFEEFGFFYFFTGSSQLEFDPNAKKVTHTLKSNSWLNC

Compound `O=S(=O)(CCC1CS1)c1ccc(Oc2ccccc2)cc1` (stereo not shown) [Compound 2, 2-(4-Phenoxyphenylsulfonyl)ethylthiirane] has a Ki (MMP-9 [1]) of 44 ± 5 µM, a Ki (MMP-3) greater than 130 µM and a Ki (MMP-1) greater than 130 µM. For the same compound, the Ki (MMP-2 [2]) was 4.7 ± 0.7 µM, the melting point was 99 to 101 °C and the Ki (MMP-7) was greater than 130 µM.
In the case of `O=S(=O)(CCCC1CS1)c1ccc(Oc2ccccc2)cc1` (stereo not shown) [Compound 3, 3-(4-Phenoxyphenylsulfonyl)propylthiirane], the Ki (MMP-9 [1]) is reported as 181 ± 41 µM, the Ki (MMP-3) is reported as greater than 130 µM and the Ki (MMP-1) is reported as greater than 130 µM. It also gave a Ki (MMP-2 [2]) of 4.3 ± 0.7 µM, a melting point of 75 to 76 °C and a Ki (MMP-7) greater than 130 µM.
Work on `O=S(=O)(CC1CO1)c1ccc(Oc2ccccc2)cc1` (stereo not shown) [Compound 4, (4-Phenoxyphenylsulfonyl)methyloxirane] yielded a Ki (MMP-9 [1]) of 186 ± 11 µM, a Ki (MMP-3) greater than 130 µM and a Ki (MMP-1) greater than 130 µM. The Ki (MMP-2 [2]; Ki) was 25 ± 2 µM, the melting point was 50 to 51 °C and the Ki (MMP-7) was greater than 130 µM.
For `O=S(=O)(CCC1CO1)c1ccc(Oc2ccccc2)cc1` (stereo not shown) [Compound 5, 2-(4-Phenoxyphenylsulfonyl)ethyloxirane], the Ki (MMP-9 [1]) was 102 ± 2 µM, the Ki (MMP-3) was greater than 130 µM and the Ki (MMP-1) was greater than 130 µM. For the same compound, the Ki (MMP-2 [2]; Ki) was 5.1 ± 0.5 µM, the melting point was 75 to 77 °C and the Ki (MMP-7) was greater than 130 µM.
`O=S(=O)(CCCC1CO1)c1ccc(Oc2ccccc2)cc1` (stereo not shown) [Compound 6, 3-(4-Phenoxyphenylsulfonyl)propyloxirane] showed a Ki (MMP-9 [1]) of 75 ± 6 µM, a Ki (MMP-3) greater than 130 µM and a Ki (MMP-1) greater than 130 µM. The Ki (MMP-2 [2]; Ki) was 10.7 ± 0.6 µM and the Ki (MMP-7) was greater than 130 µM.
For “TIMP-1: endogenous cellular protein inhibitor of MMPs (tissue inhibitor for matrix metalloproteinases)”, the Ki (MMP-9 [3]) is given as 0.024 ± 0.004 µM and the Ki (MMP-2 [4]) is given as 0.029 ± 0.005 µM.
